Experiment [1] is described as follows: Reduction in CD4 expression in human MT4 cells at 1.82 uM incubated for 24 hrs by flow cytometry analysis. The format is functional. More on the design: scale not given: the % may be the effect or the level left. In general terms: In flow cytometry, cells or beads pass a laser one at a time.
Experiment [2] concerns Human immunodeficiency virus 1. As to the kind of experiment: Reactivation of HIV-1 latency infected in GFP-fused J-Lat 10.6 cells assessed as HIV-1 latency reactivation in reservoir cells at 0.097 to 9.7 uM incubated for 24 hrs flow cytometry analysis. The format is functional. As to conditions: dose 0.097-9.7 µM.
For the next experiment, the system named is MT4. As to the kind of experiment: Cytotoxicity against human MT4 cells assessed as cell viability at 1 ug/ml incubated for 24 hrs by CellTiter Blue viability assay. As to conditions: dose 1.0 µg/ml. The format is functional, cell-based. (In general: Resazurin is reduced to fluorescent resorufin, in cell work by metabolically active cells.)
Experiment [3] can be described thus: Reduction in CD4 expression in human MT4 cells at 1.77 uM incubated for 24 hrs by flow cytometry analysis. The arrangement: scale not given: the % may be the effect or the level left. The format is functional.
Experiment [4] can be described thus: Reduction in CD4 expression in human MT4 cells at 1.94 uM incubated for 24 hrs by flow cytometry analysis. The class given is functional. More on the design: scale not given: the % may be the effect or the level left.
Experiment [5] deals with Human immunodeficiency virus 1. The experiment in a line: Reactivation of HIV-1 latency infected in GFP-fused J-Lat 10.6 cells assessed as HIV-1 latency reactivation in reservoir cells at 0.088 to 8.85 uM incubated for 24 hrs flow cytometry analysis. The class given is functional. As to conditions: dose 0.088-8.85 µM.
Experiment [6] deals with Human immunodeficiency virus 1. The experiment in a line: Reactivation of HIV-1 latency infected in GFP-fused J-Lat 10.6 cells assessed as HIV-1 latency reactivation in reservoir cells at 2.24 uM incubated for 24 hrs flow cytometry analysis. The class given is functional.

Molecules are shown by their SMILES.

As for `C/C=C(/C)C(=O)O[C@@H]1[C@@H](C)[C@]2(O)[C@@H]3C=C(C)C(=O)[C@@]3(O)[C@H](O)C(C)=C[C@H]2[C@H]2C(C)(C)[C@]12OC(=O)C(C)C`, the Activity was 40% in experiment [1]; 70% in experiment [2]; “Not toxic” with MT4; 40% in experiment [3]; 40% in experiment [4].
As to `C/C=C(/C)C(=O)O[C@@H]1[C@@H](C)[C@]2(O)[C@@H]3C=C(C)C(=O)[C@@]3(O)[C@H](O)C(C)=C[C@H]2[C@H]2C(C)(C)[C@]12OC(=O)Cc1ccccc1`, the values for the Activity entry (in the experiment with MT4; in experiment [5]) were “Not toxic” and 70%, respectively.
Regarding `CCCCCC(=O)O[C@H]1C(C)=C[C@]23C(=O)[C@@H](C=C(CO)[C@@H](O)[C@]12O)[C@H]1[C@@H](C[C@H]3C)C1(C)C`, the Activity in experiment [6] is on record as 70%.

These data come from ChEMBL document CHEMBL4825674, “Phorbol Esters from the Latex of Euphorbia umbellata: Bioguided Isolation of Highly Potent HIV-1 Latency Interrupters in Virus Reservoir Cells” (2021).
